In patent publication US4281180A, “Process for producing threo-3-amino-2-hydroxybutanoyl-aminoacetic acids, as well as novel intermediated therefor and process for producing them” (Nippon Kayaku Kabushiki Kaisha, priority 1978, dated 1981):

Columns and labels:
aminopeptidase B [1] = molecular target: T1, aminopeptidase B (Rattus norvegicus, UniProt O09175); test: Inhibitory Activity to Aminopeptidase B; format: biochemical; details: pH 7.0, 37° C., 30 minutes, substrate arginine-β-naphthylamide; read-out: IC50 (50% inhibitory ratio) (converted)
T1 construct: an aminopeptidase B solution purified by the same enzyme purification process as in the process by Hopsu et al; from tissue
T1 sequence (O09175 1-650): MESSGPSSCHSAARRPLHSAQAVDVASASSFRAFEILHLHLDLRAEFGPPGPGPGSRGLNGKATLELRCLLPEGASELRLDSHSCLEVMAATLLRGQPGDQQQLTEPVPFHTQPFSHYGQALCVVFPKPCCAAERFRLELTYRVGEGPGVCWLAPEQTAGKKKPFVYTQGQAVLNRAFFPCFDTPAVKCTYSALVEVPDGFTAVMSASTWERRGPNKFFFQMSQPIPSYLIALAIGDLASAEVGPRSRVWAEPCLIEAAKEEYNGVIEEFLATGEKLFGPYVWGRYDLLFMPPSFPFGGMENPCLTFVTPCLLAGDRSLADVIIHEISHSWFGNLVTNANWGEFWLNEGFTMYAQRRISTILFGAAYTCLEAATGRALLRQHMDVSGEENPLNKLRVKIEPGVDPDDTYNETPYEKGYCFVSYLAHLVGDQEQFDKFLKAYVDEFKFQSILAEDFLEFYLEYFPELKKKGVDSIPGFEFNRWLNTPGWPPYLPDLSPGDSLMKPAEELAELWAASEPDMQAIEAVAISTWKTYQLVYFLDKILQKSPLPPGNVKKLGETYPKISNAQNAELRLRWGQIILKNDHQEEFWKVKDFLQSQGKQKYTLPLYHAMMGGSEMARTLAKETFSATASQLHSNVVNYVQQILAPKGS
Procedure: Measurement for the inhibitory activity to aminopeptisase B was conducted by the method reported by Hopsu et al. while somewhat modifying the process [V. K. Hopsu, K. K. Makinen, G. G. Glenner; Archives of Biochemistry and Biophysics, 114, 557 (1966)].
A mixed solution (pH 7.0) prepared by adding 1.0 ml of a 0.1 M tris-hydrochloric acid buffer solution and 0.7 ml of a solution containing a test specimen to 0.3 ml of 0.1 mM arginine-β-naphthylamide was heated at 37° C. for 4 minutes. Thereafter, 0.2 ml of an aminopeptidase B solution purified by the same enzyme purification process as in the process by Hopsu et al. using Sephadex G-100 (registered Trademark) was added and reacted at 37° C. for 30 minutes. Then, 0.6 ml of a 1.0 M acetic acid buffer solution (pH 4.2) containing Garnet GBC (o-aminoazotoluenediazonium salt) at 1.0 mg/ml concentration and containing Tween 20 (registered trademark) at 1.0% concentration was further added and left for 15 minutes at room temperature, after which absorption ratio (a) at 530 nm was measured. The absorption ratio (b) for the blind solution using only the buffer solution containing no specimen was simultaneously mesured, and the inhibitory ratio to aminopeptidase B was calculated as (b-a)/b×100.
Inhibitory ratios for each of the specimens at several concentrations were determined by the above test method, from which 50% inhibitory ratios (IC50) were deduced.

cancer = details: Japanese Patent Laid-Open Publication No. 117435/1977; cited from earlier work
[2] = isolated from culture filtrates of Streptomyces olivoreticuli; cited from earlier work
aminopeptidase B [3] = molecular target: T1, aminopeptidase B; details: U.S. Pat. No. 4,029,547; cited from earlier work
immunoresponse = details: Japanese Patent Laid-Open Publication No. 117435/1977; cited from earlier work

| SMILES | IC50 (aminopeptidase B [1]) [nM] | other results |
| --- | --- | --- |
| COc1ccc(C[C@@H](N)[C@H](O)C(=O)N[C@@H](CC(C)C)C(=O)O)cc1 [No. 1, (2S,3R)-3-amino-2-hydroxy-4-(4-methoxyphenyl)butanoyl-(S)-leucine] | 17.7 |  |
| COc1ccccc1CC(N)C(O)C(=O)N[C@@H](CC(C)C)C(=O)O (stereo partly drawn) [No. 2, Threo-(2RS)-3-amino-2-hydroxy-4-(2-methoxyphenyl)butanoyl-(S)-leucine] | 8570 |  |
| COc1cccc(CC(N)C(O)C(=O)N[C@@H](CC(C)C)C(=O)O)c1 (stereo partly drawn) [No. 3, Threo-(2RS)-3-amino-2-hydroxy-4-(3-methoxyphenyl)butanoyl-(S)-leucine] | 118 |  |
| CC(C)C[C@H](NC(=O)C(O)C(N)Cc1cccc2ccccc12)C(=O)O (stereo partly drawn) [No. 4, Threo-(2RS)-3-amino-2-hydroxy-4-(1-naphthyl)butanoyl-(S)-leucine] | 4180 |  |
| CC(C)C[C@H](NC(=O)C(O)C(N)Cc1ccc2ccccc2c1)C(=O)O (stereo partly drawn) [No. 5, Threo-(2RS)-3-amino-2-hydroxy-4-(2-naphthyl)butanoyl-(S)-leucine] | 279 |  |
| CC(C)C[C@H](NC(=O)C(O)C(N)Cc1ccc(-c2ccccc2)cc1)C(=O)O (stereo partly drawn) [No. 6, Threo-(2RS)-3-amino-2-hydroxy-4-(4-phenylphenyl)butanoyl-(S)-leucine] | 9360 |  |
| CC(C)Cc1ccc(CC(N)C(O)C(=O)N[C@@H](CC(C)C)C(=O)O)cc1 (stereo partly drawn) [No. 8, Threo-(2RS)-3-amino-2-hydroxy-4-(4-iso-butylphenyl)butanoyl-(S)-leucine] | 7680 |  |
| CC(C)C[C@H](NC(=O)C(O)C(N)Cc1ccc(O)c(O)c1)C(=O)O (stereo partly drawn) [No. 9, Threo-(2RS)-3-amino-2-hydroxy-4-(3,4-dihydroxyphenyl)butanoyl-(S)-leucine] | 5290 |  |
| CC(C)C[C@H](NC(=O)C(O)C(N)Cc1ccc(OC(C)C)cc1)C(=O)O (stereo partly drawn) [No. 10, Threo-(2RS)-3-amino-2-hydroxy-4-(4-iso-propoxyphenyl)butanoyl-(S)-leucine] | 18600 |  |
| CC(C)COc1ccc(CC(N)C(O)C(=O)N[C@@H](CC(C)C)C(=O)O)cc1 (stereo partly drawn) [No. 11, Threo-(2RS)-3-amino-2-hydroxy-4-(4-iso-butoxyphenyl)butanoyl-(S)-leucine] | 11800 |  |
| CC(C)C[C@H](NC(=O)C(O)C(N)Cc1ccc(F)cc1)C(=O)O (stereo partly drawn) [No. 12, Threo-(2RS)-3-amino-2-hydroxy-4-(4-fluorophenyl)butanoyl-(S)-leucine] | 91.9 |  |
| CC[C@H](C)[C@H](NC(=O)C(O)C(N)Cc1ccc2ccccc2c1)C(=O)O (stereo partly drawn) [No. 13, Threo-(2RS)-3-amino-2-hydroxy-4-(2-naphthyl)butanoyl-(S)-isoleucine] | 83.7 |  |
| COc1ccc(C[C@@H](N)[C@H](O)C(=O)N[C@H](C(=O)O)C(C)C)cc1 [No. 14, (2S,3R)-3-amino-2-hydroxy-4-(4-methoxyphenyl)butanoyl-(S)-valine] | 216 |  |
| CC(C)C[C@H](NC(=O)C(O)C(N)Cc1ccccc1O)C(=O)O (stereo partly drawn) [No. 15, Threo-(2RS)-3-amino-2-hydroxy-4-(2-hydroxyphenyl)butanoyl-(S)-leucine] | 1630 |  |
| CC(C)C[C@H](NC(=O)C(O)C(N)Cc1cccc(O)c1)C(=O)O (stereo partly drawn) [No. 16, Threo-(2RS)-3-amino-2-hydroxy-4-(3-hydroxyphenyl)butanoyl-(S)-leucine] | 277 |  |
| CC(C)C[C@H](NC(=O)[C@@H](O)[C@H](N)Cc1ccccc1)C(=O)O [bestatin, (2S,3R)-3-amino-2-hydroxy-4-phenylbutanoyl-(S)-leucine] |  | effects for cancer (cancer): inhibitive effects for cancer; toxicity [2]: least toxic; aminopeptidase B inhibitor (aminopeptidase B [3]): aminopeptidase B inhibitor; effect to immunoresponse such as delayed hypersthesia (immunoresponse): increasing effect to immunoresponse such as delayed hypersthesia; in vivo defense mechanism (immunoresponse): activate in vivo defense mechanism |
| CC(C)C[C@H](NC(=O)C(O)C(N)Cc1ccc(C(C)C)cc1)C(=O)O (stereo partly drawn) [compound 7] | 342 |  |
